What all share (type): cell-based
One assay has as its system Jurkat cells. Put plainly: Delivery of fluorescently-labelled proteins to Jurkat monolayer on transwell insert, flow cytometry. To be noted: soluporation. The procedure:
In order to form a monolayer of suspension cells that would allow the cells to be presented optimally to the spray, a transwell insert system was used. Cells were seeded at 1×10^6 in 400 μl per insert and the media was removed by placing the transwell insert (Greiner bio-one; CAT #655640; 12 Well ThinCert; PET 0.4 μm) into a device that allowed a vacuum to be applied to the bottom of the insert (between −0.5 bar and −0.65 bar; see FIGS. 14A, B, C). Once the media was removed the remaining cells formed a monolayer to which the spray can be applied. Non-adherent cells such as PBMCs, primary T-cells, or a cell line, e.g., Jurkat T cells, were added to the insert system, the vacuum applied and the insert placed into a 12 well plate and sprayed with delivery solution (10 lid) containing test payload such as either fluorescently-labelled beta-lactoglobulin (BLG), bovine serum albumin (BSA) or ovalburnin (OVA). Stop solution (50 μl) was applied after a 2 minute incubation and 30 s later normal media (100 μl) was applied.

Assay [1] has as its system A549 cells. Put plainly: Endocytosis inhibitor pretreatment, EGFP mRNA expression. To be noted: n=3; for Expression of EGFP mRNA delivered by soluporation in the presence of inhibitor: pretreatment: Dynasore 4 mM, chloropromazine 20 μM, Nystatin 20 μg/ml, EIPA 100 μM. As to the method: To test the contribution of alternate uptake mechanisms such as active pathways and internalization in endocytotic vesicles, A549 cells were pretreated with Dynasore (4 mM) or chloropromazine (20 μM) to inhibit clathrin-mediated endocytosis or Nystatin (20 μg/ml) or EIPA (100 μM) to inhibit caveolar-mediated endocytosis and micropinocytosis respectively.

In assay [2] the test system is A549 cells. Put plainly: Resealing of plasma membrane after permeabilization, PI uptake by flow cytometry. To be noted: delivery solution without cargo, PI 100 μg/ml, n=3. The procedure: It was noted that the delivery method was very gentle on cells with little if any cell death or damage evident. […] To examine the rate of recovery of the cell membrane after permeabilization, delivery solution was applied to A549 cells in the absence of cargo. At subsequent time points (0 to 182.5 min), this delivery solution was removed and 50 μl PBS containing propidium iodide (PI) (100 μg/ml) is added. After 2 min incubation, the PI solution was removed and the cells were harvested. PI uptake was analysed by flow cytometry. For basal levels of PI uptake, untreated cells received 50 μl PI in PBS. […] After 6 minutes there is no further uptake. Thus not only do the cells load within 2 minutes of exposure to the delivery solution, but the membrane has effectively recovered its integrity within 6 minutes of beginning the procedure.
In general terms: In flow cytometry, cells or beads pass a laser one at a time.

Consider ovalbumin, for which the “Expression levels (fluorescently-labelled protein)” value in the assay on Jurkat cells is 15.3%.

As for `C[C@@H]1[C@H](O)[C@@H](C)/C=C/C=C/CC/C=C/C=C/C=C/C=C/C(O[C@H]2O[C@H](C)[C@@H](O)[C@H](N)[C@@H]2O)CC2O[C@](O)(CC(O)C(O)CCC(O)CC(O)CC(O)CC(=O)O[C@H]1C)CC(O)C2C(=O)O` (some centres unmarked) [Nystatin], in the assay with A549 cells [1], the “Expression of EGFP mRNA delivered by soluporation in the presence of inhibitor” value (“Expression of EGFP mRNA delivered … of inhibitor” for short) was “remained unchanged”.

For the compound `O=C(N/N=C/c1ccc(O)c(O)c1)c1cc2ccccc2cc1O` [Dynasore], the “GFP expression in lipofected cells (Lipofectamine 2000)” value in the assay with A549 cells [1] (Dynasore treated) was “significantly reduced”. For the same compound, in the assay with A549 cells [1], the “Expression of EGFP mRNA delivered … of inhibitor” value is given as “remained unchanged”.

Turning to bovine serum albumin [BSA], the “Expression levels (fluorescently-labelled protein)” value with Jurkat cells was determined as 28.5%.

As to `CC[N+](C)(CC)CCC[n+]1c(-c2ccccc2)c2cc(N)ccc2c2ccc(N)cc21.[I-].[I-]` [propidium iodide], the “time post treatment over which cells remain permeable to PI before resealing” value in the assay with A549 cells [2] is listed as ≤ 6 min.

As for `CCN(c1nc(N)c(C(=O)NC(=N)N)nc1Cl)C(C)C` [EIPA], the “Expression of EGFP mRNA delivered … of inhibitor” value with A549 cells [1] was “remained unchanged”.

Regarding `CN(C)CCCN1c2ccccc2Sc2ccc(Cl)cc21` [chloropromazine], the “Expression of EGFP mRNA delivered … of inhibitor” value with A549 cells [1] is reported as “remained unchanged”.

The record behind these values is patent publication US12060570B2, “Vector-free intracellular delivery by reversible permeabilisation” (Avectas Limited, priority 2016, dated 2024).
